Measurements as given in publication PMC12610274, “Identification of Marrubiin as a Cathepsin C Inhibitor for Treating Rheumatoid Arthritis” (Molecules, 2025).

Experiments:
intracellular CTSC = molecular target: T1, intracellular CTSC (Homo sapiens, UniProt P53634); experiment: CTSC cell-based assay using the U937 cell line; settings: read-out: Cell-Based Enz (IC50: nM)
T1 construct: endogenous in cells; host or cells: U937
Experimental: Cell-based CTSC enzymatic activity assays were performed in 96-well clear-bottom black microplates. […] The detection substrate, H-Gly-Arg-AFC, was diluted to 100 µM in serum-free medium and stored for later use. U937 cells in the logarithmic growth phase were harvested, washed with PBS, and counted. A single-cell suspension was prepared at a density of 1.0 × 10^6 cells/mL using serum-free medium. 30 µL of cell suspension was seeded into each well of the 96-well plate. To the test wells, 10 µL of the compound working solution was added, while 10 µL of serum-free medium was added to the control wells. The plate was pre-incubated in a cell culture incubator at 37 °C for 3 h. Subsequently, 10 µL of H-Gly-Arg-AFC was added to initiate the enzymatic reaction, and the plate was further incubated at 37 °C for 1 h. Fluorescence measurements were performed using a multimode microplate reader at excitation/emission wavelengths of 400/505 nm. Each group of tests was independently repeated at least 3 times, and IC50 values were calculated using SPSS 10.0.

NE = experiment: Stability (protein level) of NSPs in U937 cells, Western blot, NE; format: cell-based, human; settings: U937, 10 μM
Experimental: The Western blot experiments in this study were performed as described below. Cells in the logarithmic growth phase were collected in appropriate numbers according to different experimental purposes. After being thoroughly washed with phosphate-buffered saline and centrifuged, the cell pellets were resuspended in phosphate-buffered saline to obtain single-cell suspensions. Cells were fully lysed using RIPA buffer (Beyotime, P0013B) supplemented with EDTA-free protease and phosphatase inhibitor (Abcam, ab201120). Total cellular protein solutions were obtained after centrifugation to remove cell debris. The isolated proteins were quantified using the BeyoBCA protein assay kit (Beyotime, P0399M) following the operational protocol. The quantified protein samples were thoroughly mixed with protein loading buffer, boiled on a dry bath for 5 min, and then cooled to room temperature for Western blot analysis. […] Finally, enhanced chemiluminescent horseradish peroxidase substrate (Tanon Science & Technology Co., Ltd., Shanghai, China, 180-506) was used to visualize protein bands on a ChemiDoc XRS system (Bio-Rad Laboratories, Inc., Hercules, CA, USA), and the protein bands were quantified using Image Lab analysis software (Version 6.1) (Bio-Rad). […]

CTSC and NSPs = experiment: AIA model, serum CTSC and NSPs activities, stated together; format: in vivo, Sprague-Dawley rats; settings: rat AIA, low-dose (15 mg/kg) and medium-dose (30 mg/kg) groups
Experimental: (§1) Thirty 4-week-old male Sprague-Dawley rats (weighing 120–130 g) were randomly divided into 6 groups (5 rats per group) after 1 week of adaptive feeding, namely the normal group, model group, low-dose experimental group (15 mg/kg), medium-dose experimental group (30 mg/kg), high-dose experimental group (60 mg/kg), and positive control group (30 mg/kg). Starting from Day 0 of the experiment, rats in the administration groups and model group were injected intradermally with 0.1 mL of CFA into the left hind paw to induce AIA, while rats in the normal group were injected intradermally with an equal volume (0.1 mL) of normal saline as a control. After 13 consecutive days of feeding, rats treated with CFA successfully developed typical AIA symptoms. […] During the experiment, the body weight, mental state, activity ability, hair color changes, and paw appearance changes of the rats were observed and recorded daily. In addition, on Day 0 of the experiment (baseline period), the basic paw volume of all rats was accurately measured using a plethysmometer, which served as a reference standard for subsequent evaluation of inflammation severity. From Day 13 to Day 28 of the experiment, the paw volume of the rats was measured repeatedly every 3 days. The degree of paw swelling was quantified by calculating the change in paw volume relative to the baseline. […] The cytokine levels in serum were measured. […]

CTSC = molecular target: T2, CTSC (Rattus norvegicus, UniProt P80067); experiment: AIA model, serum CTSC activity; format: in vivo, Sprague-Dawley rats; settings: high dose 60 mg/kg gavage, 15 days
T2 construct: from tissue; host or cells: serum of Sprague-Dawley rats (AIA model)
Experimental: as §1

T2 sequence (P80067 25-462): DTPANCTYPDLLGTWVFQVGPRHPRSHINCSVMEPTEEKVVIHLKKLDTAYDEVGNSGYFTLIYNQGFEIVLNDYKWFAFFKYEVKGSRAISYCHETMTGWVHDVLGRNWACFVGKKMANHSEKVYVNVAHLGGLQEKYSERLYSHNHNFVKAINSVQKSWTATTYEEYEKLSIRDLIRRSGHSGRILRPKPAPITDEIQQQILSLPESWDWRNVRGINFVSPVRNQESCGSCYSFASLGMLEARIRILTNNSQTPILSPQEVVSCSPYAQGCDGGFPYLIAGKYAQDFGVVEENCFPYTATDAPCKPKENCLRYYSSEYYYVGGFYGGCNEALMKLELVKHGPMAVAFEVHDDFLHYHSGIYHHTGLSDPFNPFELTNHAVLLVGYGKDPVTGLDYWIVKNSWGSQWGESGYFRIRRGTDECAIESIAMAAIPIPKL
T1 sequence (P53634 25-463): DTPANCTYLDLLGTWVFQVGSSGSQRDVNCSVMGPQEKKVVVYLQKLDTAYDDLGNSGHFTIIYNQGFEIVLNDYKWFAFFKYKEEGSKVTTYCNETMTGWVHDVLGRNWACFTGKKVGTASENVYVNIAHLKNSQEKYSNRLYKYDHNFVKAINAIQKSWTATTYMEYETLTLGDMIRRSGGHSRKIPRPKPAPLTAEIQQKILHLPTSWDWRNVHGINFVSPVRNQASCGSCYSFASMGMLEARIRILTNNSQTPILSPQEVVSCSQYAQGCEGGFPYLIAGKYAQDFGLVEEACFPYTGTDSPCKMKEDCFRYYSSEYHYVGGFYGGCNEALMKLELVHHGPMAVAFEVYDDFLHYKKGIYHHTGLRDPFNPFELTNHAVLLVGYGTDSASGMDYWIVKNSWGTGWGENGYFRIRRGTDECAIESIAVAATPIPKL

SMILES: C[C@@H]1C[C@H]2OC(=O)[C@@]3(C)CCC[C@@](C)([C@@H]23)[C@@]1(O)CCc1ccoc1 [Marrubiin, marrubiin]
- IC50 (intracellular CTSC): 51.6 ± 3.2 nM
- NE protein level, % of original level (NE; 96 h): 15.7%
- NE protein level, % of original level (NE; 5 days): 8.7%
- serum activities of CTSC and NSPs (CTSC and NSPs): no significant reduction effect
- serum CTSC activity, % of control group (CTSC): approximately 58%
